Converted amounts (≈) assume the structure as drawn. Where two headings read alike, the source gives them in different places.
Tests used:
[1] = system: Enterococcus faecium E417-HM-965; assay: MIC of CAIs in BHIB and TSB; assay type: cell-based
Experimental: (§1) The minimum inhibitory concentrations (MICs) of CAIs were tested against clinical isolates of vancomycin sensitive and vancomycin resistant Enterococci strains as per the guidelines provided by the Clinical and Laboratory Standards Institute (CLSI). The selected strains of Enterococci were streaked on Tryptic Soy Agar (TSA) plates and let grow for 24 hours at 37° C. Afterwards, a bacterial solution equivalent to 0.5 McFarland standard was prepared and diluted in tryptone soy broth (TSB) or brain heart infusion broth (BHIB) to achieve a bacterial concentration of about 5×10^5 CFU/mL and seeded in 96-well well plates. Compounds and control drugs were added in the first row of the 96-well plates and serially diluted along the plates. Plates were then incubated aerobically at 37° C. for 18-20 hours. MICs reported in Table 5 are the minimum concentration of the compounds/control drugs that could inhibit completely the visual growth of the bacteria.

[2] = system: Enterococcus faecium Patient #2-1-NR-31909; assay: MIC of CAIs in BHIB and TSB; assay type: cell-based
Experimental: as §1

[3] = system: Enterococcus fecalis Strain SF 24397 NR31970; assay: MIC of CAIs in BHIB and TSB; assay type: cell-based
Experimental: as §1

[4] = system: Enterococcus faecalis—S613 HM-334; assay: MIC of CAIs in BHIB and TSB; assay type: cell-based
Experimental: as §1, with “bacteria. The MIC values of CAIs against the tested VRE strains were higher in BHIB than in TSB. This may be due to binding of these drugs to proteins. […] They inhibited the VRE strains at MIC values ranging from 1 to 4 μg/mL.” for “bacteria.”

[5] = system: Enterococcus faecalis-S613 HM-334; assay: MIC in presence of 4% human serum albumin; assay type: cell-based; conditions: TSB supplemented with 4% human serum albumin
Experimental: as §1, with “against” for “against clinical isolates of vancomycin sensitive and”, “resistant Enterococcus faecalis—S613 HM 334 strain” for “resistant Enterococci strains”, “selected strain was” for “selected strains of Enterococci were”, “(TSA) plate” for “(TSA) plates”, “(TSB) supplemented with 4% human serum albumin (HAS)” for “(TSB) or brain heart infusion broth (BHIB)”, “in table (6)” for “in Table 5”

[6] = system: Enterococcus faecalis—S613 HM-334; assay: MIC, broth microdilution in TSB; assay type: cell-based; conditions: Enterococcus, TSB
Experimental: (§2) The minimum inhibitory concentrations (MICs) of the compounds and control drugs were determined using the broth microdilution method, according to guidelines outlined by the Clinical and Laboratory Standards Institute (CLSI). Enterococci strains were grown aerobically overnight on tryptone soya agar plates at 37° C., afterwards a bacterial solution equivalent to 0.5 McFarland standard was prepared and diluted in tryptone soy broth (TSB) to achieve a bacterial concentration of about 5×10^5 CFU/mL and seeded in 96-well well plates. Compounds and control drugs were added in the first row of the 96-well plates and serially diluted along the plates. Plates were then incubated aerobically at 37° C. for 18-20 hours. MICs reported in Table 1 are the minimum concentration of the compounds/control drugs that could inhibit completely the visual growth of the bacteria.

[7] = system: Enterococcus faecium E417-HM-965; assay: MIC, broth microdilution in TSB; assay type: cell-based; conditions: Enterococcus faecium, E417HM965, TSB
Experimental: as §2

[8] = system: Enterococcus faecium Patient #2-1-NR-31909; assay: MIC, broth microdilution in TSB; assay type: cell-based; conditions: Enterococcus faecium, TSB
Experimental: as §2

[9] = system: Enterococcus faecium Patient #3-1 NR-31912; assay: MIC, broth microdilution in TSB; assay type: cell-based; conditions: Enterococcus faecium, TSB
Experimental: as §2

[10] = system: Enterococcus fecalis Strain MMH594-NR31975; assay: MIC, broth microdilution in TSB; assay type: cell-based; conditions: Enterococcus, TSB
Experimental: as §2

[11] = system: Enterococcus fecalis Strain SF 24397 NR31970; assay: MIC, broth microdilution in TSB; assay type: cell-based; conditions: Enterococcus, TSB
Experimental: as §2

[12] = system: Enterococcus fecalis Strain SF 28073-NR31972; assay: MIC, broth microdilution in TSB; assay type: cell-based; conditions: Enterococcus, TSB
Experimental: as §2

[13] = system: Enterococcus fecalis Strain SF24413 NR31971; assay: MIC, broth microdilution in TSB; assay type: cell-based; conditions: Enterococcus, TSB
Experimental: as §2

[14] = system: MRSA NRS 384 (MRSA USA300); assay: MIC against Staphylococci, broth microdilution; assay type: cell-based, Staphylococcus aureus; conditions: Staphylococcus aureus; TSB; read-out: MIC
Experimental: as §2, with “Institute (CLSI) 1. Staphylococci” for “Institute (CLSI). Enterococci”, “Table 2” for “Table 1”

[15] = system: Staphylococcus epidermidis NRS 101; assay: MIC against Staphylococci, broth microdilution; assay type: cell-based; conditions: Staphylococcus epidermidis, NRS101; TSB; read-out: MIC
Experimental: as §2, with “Institute (CLSI) 1. Staphylococci” for “Institute (CLSI). Enterococci”, “Table 2” for “Table 1”

[16] = system: Bacteroides dorei—CL02T12C06 HM-719; assay: MIC against human normal gut microbiota; assay type: cell-based; conditions: Bacteroides; BHIS broth, anaerobic, 48 hours; read-out: MIC
Experimental: (§3) Three different bacterial strains were used in this experiment; Bifidobacterium (anaerobic Gram positive bacteria), Bacteroides (anaerobic Gram negative bacteria) and Lactobacillus (microaerophilic Gram positive bacteria). Bifidobacterium and Bacteroides were first grown for 48 hours at 37° C., anaerobically using brain heart infusion supplemented (BHIS) agar (Brain heart infusion agar supplemented with hemin, vitamin K and L-cysteine). Lactobacillus was cultivated on MRS agar and incubated in presence of 5% CO2 for 48 hours at 37° C. Each bacterium was suspended in phosphate buffered saline (PBS) to produce a suspension with optical density that matches 0.5 McFarland standard and diluted in brain heart infusion supplemented broth (for Bifidobacterium and Bacteroides) or in MRS broth (for Lactobacillus) to achieve bacterial concentration of approximately 5×10^5 CFU/ml. Bacteria were then seeded in 96-well plates containing serial dilutions of the compounds and incubated as mentioned previously for 48 hours.

[17] = system: Bacteroides fragilis—CL07T00C01 HIM-709; assay: MIC against human normal gut microbiota; assay type: cell-based; conditions: Bacteroides; BHIS broth, anaerobic, 48 hours; read-out: MIC
Experimental: as §3

[18] = system: Bifidobacterium breve—JCP7499 HIM 1120; assay: MIC against human normal gut microbiota; assay type: cell-based; conditions: Bifidobacterium; BHIS broth, anaerobic, 48 hours; read-out: MIC
Experimental: as §3

[19] = system: Bifidobacterium longum subsp. Longum—44B HM 845; assay: MIC against human normal gut microbiota; assay type: cell-based; conditions: Bifidobacterium longum; BHIS broth, anaerobic, 48 hours; read-out: MIC
Experimental: as §3

[20] = system: Lactobacillus casei ATCC 334; assay: MIC against human normal gut microbiota; assay type: cell-based; conditions: Lacticaseibacillus casei, ATCC334; MRS broth, 5% CO2, 48 hours; read-out: MIC
Experimental: as §3

[21] = system: Lactobacillus gasseri EX336960VC03 HIM-400; assay: MIC against human normal gut microbiota; assay type: cell-based; conditions: Lactobacillus gasseri; MRS broth, 5% CO2, 48 hours; read-out: MIC
Experimental: as §3

[22] = Enterococcus, TSB, Table 5, read-out: MIC

## CCN[C@H]1CN(CCCOC)S(=O)(=O)c2sc(S(N)(=O)=O)cc21 [Brinzolamide]
[1]; Enterococcus faecium, E417HM965, BHIB, read-out: MIC
  MIC: 16 µg/mL
[1]; Enterococcus faecium, E417HM965, TSB, Table 5, read-out: MIC
  MIC: 2 µg/mL
[2]; Enterococcus faecium, BHIB, read-out: MIC
  MIC: > 128 µg/mL
[2]; Enterococcus faecium, TSB, Table 5, read-out: MIC
  MIC: 4 µg/mL
[3]; Enterococcus, BHIB, read-out: MIC
  MIC: > 128 µg/mL
[3]; [22]
  MIC: 2 µg/mL
[4]; Enterococcus, BHIIB, read-out: MIC
  MIC: > 128 µg/mL
[4]; [22]
  MIC: 2 µg/mL
[5]; Enterococcus, read-out: MIC
  MIC: > 256 µg/mL

## NS(=O)(=O)c1nnc(NC(=O)c2ccccc2)s1 [CAI0012, N-(5-Sulfamoyl-1,3,4-thiadiazol-2-yl)benzamide]
[6]; Table 1, read-out: MIC
  MIC: 4 µg/mL (≈ 14.1 µM)
[6]; Table 7, read-out: MIC in TSB
  MIC: 4 µg/mL (≈ 14.1 µM)
[7]; Table 1, read-out: MIC
  MIC: 2 µg/mL (≈ 7.03 µM)
[7]; Table 7, read-out: MIC in TSB
  MIC: 2 µg/mL (≈ 7.03 µM)
[8]; Table 1, read-out: MIC
  MIC: 1 µg/mL (≈ 3.52 µM)
[8]; Table 7, read-out: MIC in TSB
  MIC: 1 µg/mL (≈ 3.52 µM)
[9]; Table 1, read-out: MIC
  MIC: 1 µg/mL (≈ 3.52 µM)
[9]; Table 7, read-out: MIC in TSB
  MIC: 1 µg/mL (≈ 3.52 µM)
[10]; Table 1, read-out: MIC
  MIC: 4 µg/mL (≈ 14.1 µM)
[10]; Table 7, read-out: MIC in TSB
  MIC: 4 µg/mL (≈ 14.1 µM)
[11]; Table 1, read-out: MIC
  MIC: 4 µg/mL (≈ 14.1 µM)
[11]; Table 7, read-out: MIC in TSB
  MIC: 4 µg/mL (≈ 14.1 µM)
[12]; Table 1, read-out: MIC
  MIC: 8 µg/mL (≈ 28.1 µM)
[12]; Table 7, read-out: MIC in TSB
  MIC: 8 µg/mL (≈ 28.1 µM)
[13]; Table 1, read-out: MIC
  MIC: 4 µg/mL (≈ 14.1 µM)
[13]; Table 7, read-out: MIC in TSB
  MIC: 4 µg/mL (≈ 14.1 µM)
[14]
  MIC: > 64 µg/mL
[15]
  MIC: > 64 µg/mL
[16]
  MIC: > 64 µg/mL
[17]
  MIC: > 64 µg/mL
[18]
  MIC: > 64 µg/mL
[19]
  MIC: > 64 µg/mL
[20]
  MIC: > 64 µg/mL
[21]
  MIC: > 64 µg/mL

## NS(=O)(=O)c1cc(Cl)c(Cl)c(S(N)(=O)=O)c1 [Dichlophenamide]
[1]; BHIB
  MIC: 16 µg/mL
[1]; TSB, Table 5
  MIC: 1 µg/mL
[2]; BHIB
  MIC: >128 µg/mL
[2]; TSB, Table 5
  MIC: 2 µg/mL
[3]; BHIB
  MIC: >128 µg/mL
[3]; TSB, Table 5
  MIC: 16 µg/mL
[4]; BHIIB
  MIC: >128 µg/mL
[4]; TSB, Table 5
  MIC: 16 µg/mL
[5]
  MIC: >256 µg/mL

— patent US12378211B2, “Carbonic anhydrase inhibitors and antibiotics against multidrug resistant bacteria” (Purdue Research Foundation, priority 2018, dated 2025)
